Laboratory results from patent US20240408088A1, “PYRAZOLE DERIVATIVE, AND PREPARATION METHOD THEREFOR AND USE THEREOF IN MEDICINE” (Abbisko Therapeutics Co., Ltd., priority 2021, published 2024).
pIC50: −log10 of the molar value. Where two headings read alike, the source gives them in different places.

Columns and labels:
[1] = Liver microsomal stability experiment; format: in vitro ADME; conditions: pH 7.4; human liver microsomes, NADPH, 37° C., 0-45 min; read-out: Human Liver Microsome Stability Half-Life T1/2
Description: Buffer solution A: 1.0 L of 0.1 M potassium dihydrogen phosphate buffer solution (containing 1.0 mM EDTA);
Buffer solution B: 1.0 L of 0.1 M dipotassium phosphate buffer solution (containing 1.0 mM EDTA);
Buffer solution C: Buffer solution A was added to 700 mL of buffer solution B. The addition was stopped when pH reached 7.4.
The selected compounds of the examples and reference standards were dissolved in DMSO to prepare a stock solution of 10 mM.
• 500 μM solution: 10 μL of 10 mM stock solution was added to 190 μL of ACN; • 1.5 μM dosing solution (dissolved in liver microsome solution, human liver microsomes were purchased from Xenotech): 18.75 μL of 20 mg/mL liver microsomes was added to 479.75 μL of buffer solution C, then 1.5 μL of 500 μM solution was added and mixed well with gentle shaking.
NADPH was weighted, then an appropriate amount of buffer solution C was added to prepare a 6 mM of NADPH solution.
• 1. 30 μL of 1.5 μM dosing solution was added to the wells set to different time points (0 min, 5 min, 15 min, 30 min and 45 min) on a 96-well plate. 2 replicates were made. • 2. Preparation of the 0-min sample: 135 μL of ACN (containing internal standard) was first added to the 0-min well, and 15 μL of 6 mM NADPH solution was added. • 3. A 96-well plate containing 1.5 μM of dosing solution and NADPH solution were pre-warmed in a 37° C. water bath for 5 minutes. • 4. Pre-warmed 15 μL of 6 mM NADPH solution was added to the wells set to 5 min, 15 min, 30 min and 45 min, the reaction was started and the timing was started. • 5. […] The solution was vortexed for 10 minutes, and the sample was centrifuged on a centrifuge at 5594×g for 15 minutes. • 6. 50 μL of supernatant was taken from the centrifuged sample, transferred to a 96-well sample plate that has been added with 50 μL of water, mixed, and finally sent to LC-MS/MS for analysis. The half-life was calculated based on the test results.

[2] = system: HCT 116 MTAP knockout cells; assay: Human colon cancer HCT116 cell proliferation inhibition test (MTAP knockout cells, CellTiter-Glo, 6 days); format: cell-based
Description: (§1) • 1. HCT 116 MTAP knockout and MTAP wild-type cells were plated in 96-well flat bottom 5 plates, and cultured overnight with McCoy's 5A medium containing […]+1% penicillin-streptomycin at 37° C. and 5% CO2. • 2. On the next day, the compound was dissolved with DMSO, diluted with DMSO and medium successively and transferred to the cell plate. The final concentration of the compound was 10 μM, the compound was diluted 4 times, with 9 concentration gradients, and DMSO control was added. • 3. Cells that have not been treated with the compound were removed. CellTiter-Glo Luminescent Cell Viability Assay (Promega) was used to detect cell viability, the operation was performed with reference to the package insert of the kit, and then the cell plate was placed on EnVision Multilabel Reader to detect the cold light signal. • 4. Meanwhile, the cell plate treated with the compound was cultured at 37° C. and 5% CO2 for 6 consecutive days. • 5. Then, CellTiter-Glo was also used to detect cell viability. • 6. Finally, the four-parameter dose-response curve module of GraphPad Prism v 9.2.0 software was used to plot the dose-response curve and calculate the IC50 for proliferation inhibition (unit: nM).

[3] = Pharmacokinetic assay in mice, single oral administration; format: in vivo; conditions: male, mouse, ICR mice, 10 mg/kg, plasma
Description: The purpose of this trial is to study the pharmacokinetic behavior of some compounds of the present invention, and the administration method is: Single oral administration (PO) to ICR mice:
ICR mice male N=3 original source: Shanghai Sippr-Bk Lab Animal Co., Ltd.
The compounds were weighed and dissolved in 20% PG+10% Solutol HS15+70% pH 3 citrate buffer, respectively, shaken well and sonicated to prepare colorless clear solutions or suspensions. Nine mice were administered orally at a dose of 10 mg/kg after an overnight fast.
About 90 μL of blood was collected via the submandibular vein per time point, heparin sodium anticoagulant was added, the sample was placed on ice after collection, and plasma was centrifuged within 1 hour (centrifugation conditions: 8,000 rpm, 6 minutes, 2-8° C.). The blood collection time points were 0, 0.25, 0.5, 1, 2, 4, 6, 8 and 24 h. The samples were stored in a refrigerator at −20° C.
The plasma sample was 40 μL, 160 μL of ice-cold acetonitrile containing internal standard was added, vortexed for 3 minutes, and centrifuged at 11,000 rpm for 5 minutes. 100 μL of the supernatant was taken and added to 100 μL of water, 5 μL of the sample was taken and injected into LC/MS/MS for analysis (see the table below for the results).
PK Results for Single Oral Administration (PO) of 10 mg/kg of Compounds to Mice

[4] = system: HCT 116 MTAP wild-type cells; assay: Human colon cancer HCT116 cell proliferation inhibition test (MTAP wild-type cells, CellTiter-Glo, 6 days); format: cell-based; conditions: HCT-116, 144 h
Description: as §1

| half-life at 1 µM [1] | pIC50 ([2]; Homo sapiens, HCT-116, 144 h) | AUC(0-t) [3] | Cmax [3] | half-life [3] | pIC50 [4] | pIC50 [2] | SMILES |
| --- | --- | --- | --- | --- | --- | --- | --- |
| 0.633 h | 7.24 | 2230 ng·h/mL | 844 ng/mL | 6.9 h |  |  | Cn1ncc(-c2cc(C#N)c3c(=O)[nH]nc(CN)c3c2)c1-c1c(F)c(Cl)cc(N2CCCC2)c1C#N [Example 9, 1-(aminomethyl)-7-(5-(3-chloro-6-cyano-2-fluoro-5-(pyrrolidin-1-yl)phenyl)-1-methyl-1H-pyrazol-4-yl)-4-oxo-3,4-dihydrophthalazine-5-carbonitrile] |
| 0.333 h | 7.28 | 973 ng·h/mL | 266 ng/mL | 1.3 h | 5.79 |  | Cn1ncc(-c2ccc3c(=O)[nH]nc(CN)c3c2)c1-c1c(F)c(Cl)cc(OC2CC2)c1C#N [MRTX-1979, reference compound] |
| 3.37 h |  | 2530 ng·h/mL | 1750 ng/mL | 1.2 h | 5.63 | 7.54 | Cn1ncc(-c2cc(C#N)c3c(=O)[nH]nc(CN)c3c2)c1-c1c(F)cc2ccccc2c1C#N [Example 1, 1-(aminomethyl)-7-(5-(1-cyano-3-fluoronaphthalen-2-yl)-1-methyl-1H-pyrazol-4-yl)-4-oxo-3,4-dihydrophthalazine-5-carbonitrile] |
|  | 7.10 |  |  |  | 5.49 |  | Cn1ncc(-c2ccc3c(=O)[nH]nc(CN)c3c2)c1-c1c(F)c(Cl)cc(N2CCC(F)(F)C2)c1C#N [Example 19, 2-(4-(4-(aminomethyl)-1-oxo-1,2-dihydrophthalazin-6-yl)-1-methyl-1H-pyrazol-5-yl)-4-chloro-6-(3,3-difluoropyrrolidin-1-yl)-3-fluorobenzonitrile] |
| 0.45 h | 7.77 | 2980 ng·h/mL | 810 ng/mL | 5 h | 6.12 |  | Cn1ncc(-c2ccc3c(=O)[nH]nc(CN)c3c2)c1-c1c(F)c(Cl)cc(N2CCCC2)c1C#N [Example 28, 2-(4-(4-(aminomethyl)-1-oxo-1,2-dihydrophthalazin-6-yl)-1-methyl-1H-pyrazol-5-yl)-4-chloro-3-fluoro-6-(pyrrolidin-1-yl)benzonitrile] |
|  | 7.85 |  |  |  | 5.63 |  | Cn1ncc(-c2ccc3c(=O)[nH]nc(CN)c3c2)c1-c1c(F)c(Cl)cc(N2CC(F)(F)C2)c1C#N [Example 14, 2-(4-(4-(aminomethyl)-1-oxo-1,2-dihydrophthalazin-6-yl)-1-methyl-1H-pyrazol-5-yl)-4-chloro-6-(3,3-difluoroazetidin-1-yl)-3-fluorobenzonitrile] |
| 0.717 h | 8.05 | 1440 ng·h/mL | 378 ng/mL | 4 h |  |  | C#Cc1cc(-c2cnn(C)c2-c2c(F)cc3ccccc3c2C#N)cc2c(CN)n[nH]c(=O)c12 [Example 2, 2-(4-(4-(aminomethyl)-8-ethynyl-1-oxo-1,2-dihydrophthalazin-6-yl)-1-methyl-1H-pyrazol-5-yl)-3-fluoro-1-naphthalenenitrile] |
|  | 7.68 |  |  |  | 5.59 |  | Cn1ncc(-c2ccc3c(=O)[nH]nc(CN)c3c2)c1-c1c(F)c(N2CCCC2)cc(OC2CC2)c1C#N [Example 16, 2-(4-(4-(aminomethyl)-1-oxo-1,2-dihydrophthalazin-6-yl)-1-methyl-1H-pyrazol-5-yl)-6-cyclopropoxy-3-fluoro-4-(pyrrolidin-1-yl)benzonitrile] |
|  | 7.54 |  |  |  | 5.98 |  | Cn1ncc(-c2cc(C3CC3)c3c(=O)[nH]nc(CN)c3c2)c1-c1c(F)cc2ccccc2c1C#N [Example 3, 2-(4-(4-(aminomethyl)-8-cyclopropyl-1-oxo-1,2-dihydrophthalazin-6-yl)-1-methyl-1H-pyrazol-5-yl)-3-fluoro-1-naphthalenenitrile] |
|  | 6.91 |  |  |  | 5.25 |  | Cn1ncc(-c2ccc3c(=O)[nH]nc(CN)c3c2)c1-c1c(F)c(Cl)cc(N2CC(C)(F)C2)c1C#N [Example 18, 2-(4-(4-(aminomethyl)-1-oxo-1,2-dihydrophthalazin-6-yl)-1-methyl-1H-pyrazol-5-yl)-4-chloro-3-fluoro-6-(3-fluoro-3-methylazetidin-1-yl)benzonitrile] |
| 0.867 h | 7.74 | 2710 ng·h/mL | 576 ng/mL | 3.2 h |  |  | Cn1ncc(-c2cc(C3CC3)c3c(=O)[nH]nc(CN)c3c2)c1-c1c(F)c(Cl)cc(OC2CC2)c1C#N [Example 8, 2-(4-(4-(aminomethyl)-8-cyclopropyl-1-oxo-1,2-dihydrophthalazin-6-yl)-1-methyl-1H-pyrazol-5-yl)-4-chloro-6-cyclopropoxy-3-fluorobenzonitrile] |
| 2.05 h | 7.15 | 2900 ng·h/mL | 973 ng/mL | 5.1 h |  |  | Cn1ncc(-c2cc(C#N)c3c(=O)[nH]nc(CN)c3c2)c1-c1c(F)c(Cl)cc(OC2CC2)c1C#N [Example 6, 1-(aminomethyl)-7-(5-(3-chloro-6-cyano-5-cyclopropoxy-2-fluorophenyl)-1-methyl-1H-pyrazol-4-yl)-4-oxo-3,4-dihydrophthalazine-5-carbonitrile] |
